Square brackets hold non-standard residues; d marks the D form. Ends that are not written are not given here. * marks the point of attachment. Tyr(3-NO2) = N[C@@H](Cc1ccc(O)c([N+](=O)[O-])c1)C(=O)O; Hyp = O=C(O)[C@@H]1C[C@@H](O)CN1; For = O=C*
Legend:
[1] = system: α3 Integrin; assay: FACS analysis of cell binding, binder targeting α3 Integrin; parameters: species or system human; details: FIG. 8; 200 nM biotinylated binder; K 562 does not express α3 Integrin
Procedure: (§1) The binding capability of peptides or peptidomimectis, of synthetic compounds according to the invention to different cell lines displaying particular targets was investigated by using flow cytometry. Detached cells were incubated with biotinylated peptide/peptidomimetic or biotinylated synthetic compound in blocking buffer for at least 30 min of ice. The cells were washed twice with washing buffer followed by incubation with streptavidin labeled with the Peridinin-chlorophyll protein PerCP-Cy5.5 (BD Biosciences) for 15 minutes on ice. After one additional wash step, samples were analyzed using FACS Canto (at least 10,000 cells per sample were counted) for cells which have bound the biotinylated reagent plus the streptavidin-PerCP-Cy5.5. Overlay histograms of cells incubated with peptide or control peptide were generated and the geometrical mean fluorescence of each sample was determined in FloJo. The EC50 measurements were calculated using Graph Prism software.
(§2) The following cell lines were used. The presence or absence of the surface antigens α3 Integrin and αvβ6 Integrin has been verified by corresponding antibody tests: […]

[2] = molecular target: T1, α3 Integrin (Homo sapiens, UniProt P05556+P26006); assay: as above; details: FIG. 8, 200 nM biotinylated binder, vs scrambled variant
T1 construct: endogenous in cells; host or cells: A431
Procedure: as §1, §2

[3] = system: αvβ6 Integrin; assay: FACS analysis of cell binding, binder targeting αvβ6 Integrin; parameters: species or system human; details: FIG. 9, 10 nM biotinylated binder
Procedure: as §1, §2

[4] = molecular target: T2, αvβ6 Integrin (Homo sapiens, UniProt P06756+P18564); assay: as above; details: FIG. 9, 10 nM biotinylated binder, vs scrambled variant
T2 construct: The presence or absence of the surface antigens α3 Integrin and αvβ6 Integrin has been verified by corresponding antibody tests; endogenous in cells
Procedure: as §1, §2

[5] = system: human leukocytes; assay: DHR 123 oxidation assay (oxidative burst), human leukocytes; format: cell-based; details: FIG. 4B; in vitro in human leukocytes; compared with fMLF
Procedure: (§3) Oxidative burst in neutrophils form part of the cells host defense, and can be evoked, e.g., by the N-formyl peptide fMLP. (Kim et al, 2003). Oxidation assays are thus a useful tool to determine the potency of formyl peptides. The oxidative burst activity of neutrophils caused by incubation with effector peptides or peptidomimetics was measured by flow cytometry, quantifying the intracellular conversion of dihydrorhodamine 123 (DHR) to rhodamine. In brief, human or murine leukocytes (1.25*10^6 cells/ml) were incubated with catalase, cytochalasin B (Sigma) and DHR (Invitrogen) in Hanks' Buffered Saline Solution (HBSS, without Ca^2+, Mg^2+) with 10 mM Hepes pH 7.4, 5 mM EDTA and 0.3% BSA at 37° C. for 10 minutes followed by incubation with the different effector peptides or peptidomimetics at different concentrations for 15 minutes at 37° C. PMA was used as a positive control.
(§4) All samples were fixed in formaldehyde and kept on ice until analysis using FACS Canto (at least 20,000 cells per sample were counted). Neutrophils were identified based on forward and side scatter characteristics. Analysis of DHR fluorescence was performed by side scatter/FL2 dot plots. Percent of DHR-positive cells were identified by gating on a negative (unstimulated) control sample.

[6] = system: human leukocytes; assay: Chemotaxis assay; format: cell-based; details: FIG. 4A; in vitro in human leukocytes; compared with fMLF (devoid of an Ile residue)
Procedure: To test for the chemotactic effect of effector peptides or peptidomimetics, human leukocytes were re-suspended in Hanks' Buffered Saline Solution (HBSS, without Ca^2+, Mg^2+) with 10 mM Hepes pH 7.4 and 0.3% BSA at 10*10^6 cells/ml. Cells were pre-warmed at 37° C. for 20 min. After adding the effector dilutions in the above buffer into wells of 24-well plates (800 μl/well), a Millicell culture plate insert with 5 μm pore size was placed in each well, followed by immediate addition of 200 μl (2 million) leukocytes. The plate was incubated at 37° C. for 45 min. The total number of leukocytes that migrated to the bottom chamber was determined using a Neubauer chamber, or the numbers of transmigrated monocytes, neutrophils and lymphocytes were determined by flow cytometry (distinguish cell populations in FCS/SSC plot).

[7] = system: mouse leukocytes; assay: DHR 123 oxidation assay (oxidative burst), mouse leukocytes; format: cell-based; details: FIG. 5; in vitro in mouse leukocytes; compared with fMLF
Procedure: as §3, §4

T1 sequence (P26006 33-872 limits assumed): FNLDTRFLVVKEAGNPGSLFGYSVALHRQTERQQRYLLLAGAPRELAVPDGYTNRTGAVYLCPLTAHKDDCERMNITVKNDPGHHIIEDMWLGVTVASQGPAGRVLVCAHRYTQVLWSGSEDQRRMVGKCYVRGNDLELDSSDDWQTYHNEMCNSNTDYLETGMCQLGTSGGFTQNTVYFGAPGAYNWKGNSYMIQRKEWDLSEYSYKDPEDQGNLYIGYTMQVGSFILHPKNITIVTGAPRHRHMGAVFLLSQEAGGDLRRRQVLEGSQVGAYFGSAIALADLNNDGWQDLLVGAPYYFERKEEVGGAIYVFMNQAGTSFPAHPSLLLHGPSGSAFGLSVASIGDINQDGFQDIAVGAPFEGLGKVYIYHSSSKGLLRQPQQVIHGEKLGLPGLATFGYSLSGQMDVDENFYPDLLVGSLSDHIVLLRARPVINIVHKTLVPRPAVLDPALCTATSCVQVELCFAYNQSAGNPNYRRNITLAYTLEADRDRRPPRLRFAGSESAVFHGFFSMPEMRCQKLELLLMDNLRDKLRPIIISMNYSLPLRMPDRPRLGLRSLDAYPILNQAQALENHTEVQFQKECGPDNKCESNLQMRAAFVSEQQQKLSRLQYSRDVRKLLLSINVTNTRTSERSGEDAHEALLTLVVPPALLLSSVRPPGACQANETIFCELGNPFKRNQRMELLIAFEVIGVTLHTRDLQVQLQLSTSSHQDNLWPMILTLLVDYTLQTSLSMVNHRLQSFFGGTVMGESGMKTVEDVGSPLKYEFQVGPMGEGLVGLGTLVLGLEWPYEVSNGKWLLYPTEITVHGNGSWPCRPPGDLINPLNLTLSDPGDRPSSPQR
T1 sequence (P26006 873-1051 limits assumed): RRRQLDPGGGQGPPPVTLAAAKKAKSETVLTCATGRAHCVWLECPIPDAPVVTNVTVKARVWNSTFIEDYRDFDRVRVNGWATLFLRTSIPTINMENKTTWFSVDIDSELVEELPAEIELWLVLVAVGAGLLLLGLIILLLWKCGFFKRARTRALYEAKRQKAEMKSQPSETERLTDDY
T1 sequence (P05556 21-798): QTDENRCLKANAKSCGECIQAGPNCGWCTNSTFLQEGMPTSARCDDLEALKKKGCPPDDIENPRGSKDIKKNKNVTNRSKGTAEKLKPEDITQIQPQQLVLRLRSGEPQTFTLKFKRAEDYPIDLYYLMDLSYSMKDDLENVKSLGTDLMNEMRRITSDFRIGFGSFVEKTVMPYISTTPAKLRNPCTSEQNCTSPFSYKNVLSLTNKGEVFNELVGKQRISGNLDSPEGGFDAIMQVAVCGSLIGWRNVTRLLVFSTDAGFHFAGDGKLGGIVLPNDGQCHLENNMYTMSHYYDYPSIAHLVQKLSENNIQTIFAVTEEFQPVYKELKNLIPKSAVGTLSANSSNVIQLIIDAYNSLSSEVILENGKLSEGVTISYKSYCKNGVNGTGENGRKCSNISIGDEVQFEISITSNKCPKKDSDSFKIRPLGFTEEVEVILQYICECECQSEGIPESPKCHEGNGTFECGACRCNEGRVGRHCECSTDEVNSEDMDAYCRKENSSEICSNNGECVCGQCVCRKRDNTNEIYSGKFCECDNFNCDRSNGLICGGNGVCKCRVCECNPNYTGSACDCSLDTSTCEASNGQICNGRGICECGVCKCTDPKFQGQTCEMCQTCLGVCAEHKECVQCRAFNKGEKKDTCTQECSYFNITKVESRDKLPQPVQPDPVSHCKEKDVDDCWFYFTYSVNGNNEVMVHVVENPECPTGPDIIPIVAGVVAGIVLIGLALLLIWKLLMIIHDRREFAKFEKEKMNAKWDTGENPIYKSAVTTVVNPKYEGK
T2 sequence (P06756 31-889 limits assumed): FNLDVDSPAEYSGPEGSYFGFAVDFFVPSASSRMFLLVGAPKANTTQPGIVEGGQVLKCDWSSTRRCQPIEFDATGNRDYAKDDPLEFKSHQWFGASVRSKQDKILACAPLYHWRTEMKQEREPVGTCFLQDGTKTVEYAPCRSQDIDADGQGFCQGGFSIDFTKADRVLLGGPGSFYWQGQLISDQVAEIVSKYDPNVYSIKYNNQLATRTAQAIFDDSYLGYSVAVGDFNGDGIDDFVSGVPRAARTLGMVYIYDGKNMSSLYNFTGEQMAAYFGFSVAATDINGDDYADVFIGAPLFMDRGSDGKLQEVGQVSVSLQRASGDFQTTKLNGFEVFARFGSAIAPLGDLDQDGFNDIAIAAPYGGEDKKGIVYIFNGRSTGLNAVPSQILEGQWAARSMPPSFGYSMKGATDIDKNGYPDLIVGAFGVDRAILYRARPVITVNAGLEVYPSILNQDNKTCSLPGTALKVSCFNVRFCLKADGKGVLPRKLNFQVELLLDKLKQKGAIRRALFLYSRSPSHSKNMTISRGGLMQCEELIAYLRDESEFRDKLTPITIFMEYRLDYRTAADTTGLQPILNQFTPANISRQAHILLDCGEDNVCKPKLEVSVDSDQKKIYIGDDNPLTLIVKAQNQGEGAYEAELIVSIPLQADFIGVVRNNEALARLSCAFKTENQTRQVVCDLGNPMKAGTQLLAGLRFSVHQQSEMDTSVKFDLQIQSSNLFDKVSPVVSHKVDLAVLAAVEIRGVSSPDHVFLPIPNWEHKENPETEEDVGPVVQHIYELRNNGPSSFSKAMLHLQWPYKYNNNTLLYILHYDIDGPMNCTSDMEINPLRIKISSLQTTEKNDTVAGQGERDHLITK
T2 sequence (P06756 891-1048 limits assumed): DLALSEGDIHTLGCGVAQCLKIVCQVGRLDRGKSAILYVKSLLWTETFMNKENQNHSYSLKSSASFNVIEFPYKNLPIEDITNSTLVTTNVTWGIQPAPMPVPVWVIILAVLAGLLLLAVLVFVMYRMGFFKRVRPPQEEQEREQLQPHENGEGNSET
T2 sequence (P18564 22-788): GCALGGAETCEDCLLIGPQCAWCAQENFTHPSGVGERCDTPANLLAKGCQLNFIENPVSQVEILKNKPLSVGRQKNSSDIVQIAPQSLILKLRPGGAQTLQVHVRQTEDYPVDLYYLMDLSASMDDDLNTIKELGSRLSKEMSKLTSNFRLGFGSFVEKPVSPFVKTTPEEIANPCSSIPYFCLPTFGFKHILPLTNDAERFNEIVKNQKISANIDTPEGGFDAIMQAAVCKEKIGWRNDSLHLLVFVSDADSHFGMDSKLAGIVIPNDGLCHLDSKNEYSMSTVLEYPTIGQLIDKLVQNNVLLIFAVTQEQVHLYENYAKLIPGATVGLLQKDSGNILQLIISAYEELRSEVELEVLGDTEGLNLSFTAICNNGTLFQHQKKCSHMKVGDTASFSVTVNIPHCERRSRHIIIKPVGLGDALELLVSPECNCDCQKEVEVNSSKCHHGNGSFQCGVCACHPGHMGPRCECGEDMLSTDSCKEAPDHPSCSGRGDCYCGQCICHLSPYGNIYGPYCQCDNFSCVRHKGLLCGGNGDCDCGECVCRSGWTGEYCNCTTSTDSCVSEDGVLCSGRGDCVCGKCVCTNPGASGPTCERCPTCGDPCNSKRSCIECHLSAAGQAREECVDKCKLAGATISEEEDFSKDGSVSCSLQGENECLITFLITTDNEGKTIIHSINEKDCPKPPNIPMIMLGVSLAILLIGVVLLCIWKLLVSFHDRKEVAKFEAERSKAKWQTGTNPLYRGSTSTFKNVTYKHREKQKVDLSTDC

**Q.** For “SEQ ID NO: 1: peptidomimetic binder cdGY(3-NO2)GHypNc targeting α3 Integrin; tested biotinylated ([dC][dD]G[Tyr(3-NO2)]G[Hyp]N[dC]; cysteine pairing not given here; also: tested biotinylated, site not given here)”, which “binding to cell line K 562” value [1] is on record?
**A.** do not bind

**Q.** What about the “binding to cell line A431” value ([2]; A431 expresses α3 Integrin) of the same substance?
**A.** binds

**Q.** What about the “binding to cell line PC3” value ([2]; PC3 expresses α3 Integrin) of the same substance?
**A.** binds

**Q.** What about the “binding to cell line U87-MG” value ([2]; U87-MG expresses α3 Integrin) of the same substance?
**A.** binds

**Q.** “SEQ ID NO: 2: peptide binder RGDLATLRQL targeting αvβ6 Integrin; tested biotinylated (also: biotinylated, place not given here)” was tested. Which “binding to cell line PC-3” value ([3]; PC-3 does not express αvβ6 Integrin) did it give?
**A.** do not bind

**Q.** And the “binding to cell line U87-MG” value ([3]; U87-MG does not express αvβ6 Integrin)?
**A.** do not bind

**Q.** What about the “binding to cell line A431” value ([4]; A431 expresses αvβ6 Integrin) of the same substance?
**A.** binds

**Q.** And the “binding to cell line HT-29” value ([4]; HT-29 expresses αvβ6 Integrin)?
**A.** binds

**Q.** How did the “activation of oxidative bursts” value [5] turn out when “fMIFL: N-formyl methionine effector peptide fMIFL, comprises isoleucin; fM=N-formylmethionine, remaining letters L-amino acids (For-MIFL)” was run?
**A.** much better activation of oxidative bursts

**Q.** And the chemotactic effect [6]?
**A.** significantly better chemotactic effect

**Q.** And the “activation of oxidative bursts” value [7]?
**A.** much better activation of oxidative bursts

Reference: patent publication US11318208B2, “Synthetic compound” (Syntab Therapeutics GmbH, priority 2016, dated 2022)
